According to ChEMBL document CHEMBL1201862, “PubChem BioAssay data set” (2004):
Counter-ions that a name gives are not always drawn. Calls of active or inactive are those of the source.

Assays:
Cytochrome P450 1A2 = target: T1, Cytochrome P450 1A2 (Homo sapiens, UniProt P05177);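 note: PubChem cytochrome P450 panel assay, CYP1A2 panel member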
T1 sequence (P05177 whole entry): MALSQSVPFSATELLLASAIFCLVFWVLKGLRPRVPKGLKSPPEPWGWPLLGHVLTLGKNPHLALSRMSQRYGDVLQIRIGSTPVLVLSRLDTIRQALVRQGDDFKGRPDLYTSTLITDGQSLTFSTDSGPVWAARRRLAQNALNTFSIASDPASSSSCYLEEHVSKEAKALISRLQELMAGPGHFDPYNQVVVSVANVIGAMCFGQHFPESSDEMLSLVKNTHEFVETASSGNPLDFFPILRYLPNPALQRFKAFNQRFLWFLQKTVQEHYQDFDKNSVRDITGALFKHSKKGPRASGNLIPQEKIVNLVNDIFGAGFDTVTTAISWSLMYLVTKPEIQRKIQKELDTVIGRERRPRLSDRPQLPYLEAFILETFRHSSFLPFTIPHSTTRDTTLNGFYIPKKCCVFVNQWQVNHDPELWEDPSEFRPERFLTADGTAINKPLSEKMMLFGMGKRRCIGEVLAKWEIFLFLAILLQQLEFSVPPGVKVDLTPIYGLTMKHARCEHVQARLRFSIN

Cytochrome P450 2C9 = Cytochrome P450 2C9 (Homo sapiens, UniProt P11712)
[1] = M. tuberculosis H37Rv growth inhibitors, H37Rv strain (AID 1626); format: functional
Fatty acid synthase [2] = target: T2, Fatty acid synthase (Homo sapiens, UniProt P49327); test: FAS thioesterase domain inhibitors, dose response, biochemical, endpoint fluorescence intensity, uHTS hits (AID 624327); format: functional;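 note: fluorescence from hydrolysis of an O-methyl fluorescein acyl ester substrate by the enzyme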
Fatty acid synthase [3] = target: T2, Fatty acid synthase; test: FAS thioesterase domain inhibitors, dose response, biochemical, kinetic fluorescence intensity (AID 624326); format: functional;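 note: rate of fluorescence rise from hydrolysis of a fluorogenic O-methyl fluorescein ester substrate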
[4] = target: T3, Calpain-2 catalytic subunit (Sus scrofa, UniProt P43367); test: pig calpain II inhibitor potency, dose response, biochemical, fluorogenic peptide substrate (AID 1420); format: functional
T3 sequence (P43367 whole entry): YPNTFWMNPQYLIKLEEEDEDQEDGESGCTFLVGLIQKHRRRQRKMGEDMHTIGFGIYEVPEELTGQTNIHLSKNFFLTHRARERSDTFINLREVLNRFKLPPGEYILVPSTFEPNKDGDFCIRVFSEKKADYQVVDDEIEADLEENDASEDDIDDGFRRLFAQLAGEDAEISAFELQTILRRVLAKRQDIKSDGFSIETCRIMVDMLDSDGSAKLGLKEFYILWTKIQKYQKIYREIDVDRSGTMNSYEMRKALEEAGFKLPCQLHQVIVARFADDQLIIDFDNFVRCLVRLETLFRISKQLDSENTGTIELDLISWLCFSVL

[5] = target: T4, Short transient receptor potential channel 4 (Mus musculus, UniProt Q9QUQ5); test: mouse TRPC4 channel inhibitors, dose response, cell-based, HEK293 TRPC4/mu-opioid, Fluo-4 calcium (AID 434942); format: functional;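 note: potency of inhibitors blocking the TRPC4 calcium response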
T4 sequence (Q9QUQ5 whole entry): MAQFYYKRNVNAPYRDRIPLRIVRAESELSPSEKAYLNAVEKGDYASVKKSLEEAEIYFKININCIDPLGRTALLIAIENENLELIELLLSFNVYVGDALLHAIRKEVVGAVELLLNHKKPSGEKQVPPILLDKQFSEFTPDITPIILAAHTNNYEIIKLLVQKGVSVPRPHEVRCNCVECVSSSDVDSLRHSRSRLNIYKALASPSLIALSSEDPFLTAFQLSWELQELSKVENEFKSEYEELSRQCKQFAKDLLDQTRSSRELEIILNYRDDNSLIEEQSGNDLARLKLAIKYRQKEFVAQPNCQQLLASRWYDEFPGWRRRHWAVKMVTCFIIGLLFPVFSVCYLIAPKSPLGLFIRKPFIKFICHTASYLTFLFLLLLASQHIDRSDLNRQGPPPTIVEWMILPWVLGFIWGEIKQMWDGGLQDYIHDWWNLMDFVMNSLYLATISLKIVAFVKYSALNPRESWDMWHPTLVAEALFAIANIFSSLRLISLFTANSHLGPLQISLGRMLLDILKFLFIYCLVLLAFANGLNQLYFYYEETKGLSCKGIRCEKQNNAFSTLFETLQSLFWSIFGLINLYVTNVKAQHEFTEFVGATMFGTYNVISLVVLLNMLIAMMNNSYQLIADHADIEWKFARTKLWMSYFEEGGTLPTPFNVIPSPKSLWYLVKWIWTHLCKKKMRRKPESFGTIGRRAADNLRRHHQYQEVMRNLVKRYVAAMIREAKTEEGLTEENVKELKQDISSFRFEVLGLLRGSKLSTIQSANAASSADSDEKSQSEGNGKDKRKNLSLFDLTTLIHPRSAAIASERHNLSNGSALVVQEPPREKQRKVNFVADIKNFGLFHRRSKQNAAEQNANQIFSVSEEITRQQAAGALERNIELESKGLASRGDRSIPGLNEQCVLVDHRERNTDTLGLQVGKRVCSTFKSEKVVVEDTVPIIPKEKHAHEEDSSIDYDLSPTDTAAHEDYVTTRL

[6] = inhibitors of SNCA 5'UTR-driven reporter translation, confirmation, H4 neuroglioma cells, luminescence (AID 1988); format: functional, cell-based
[7] = Luminescence Cell-Based Dose Response HTS to Identify Inhibitors of 5'UTR Stem-Loop Driven Prion Protein mRNA Translation in H4 Neuroglioblastoma Cells. [Related pubchem assays: 1827 (Project Summary), 1813 (Primary HTS)]; format: functional
Vero = test: cells; format: functional; conditions: Chlorocebus sabaeus
[8] = inhibitors of firefly luciferase expression or activity, dose response, H4 neuroglioma cells, luminescence (AID 1990); format: functional, cell-based
Cytochrome P450 2C19 = Cytochrome P450 2C19 (Homo sapiens, UniProt P33261); test: Cytochrome panel assay with activity outcomes. Panel member name: p450-cyp2c19 Compounds with AC50 equal or less than 10 uM are considered active; format: functional; conditions: read-out: AC50
Cytochrome P450 3A4 = Cytochrome P450 3A4 (Homo sapiens, UniProt P08684);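 note: CYP3A4 tested as one member of a cytochrome P450 panel screen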
INS1 = test: beta cell apoptosis inhibitors, cytokine rescue, dose response, luminescence, retest (AID 449756); format: functional, cell-based; conditions: Rattus norvegicus;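 note: cell death triggered by IL-1 beta plus TNF-alpha plus IFN-gamma mixture; protective hits raise ATP signal compared with cytokine alone wells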
[9] = inhibitors of clade B AD8 Env fusion, dose response, cell-based, cherry-pick (AID 652062); format: functional;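 note: luciferase signal from cell-cell fusion driven by HIV-1 clade B AD8 Env; potency is for inhibitors of fusion seen as a drop in luminescence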
Escherichia coli = test: microbe, parasite or virus in culture
[10] = target: DNA dC->dU-editing enzyme APOBEC-3A (Homo sapiens, UniProt P31941); test: Dose Response confirmation of small molecule APOBEC3A DNA Deaminase Inhibitors via a fluorescence-based single-stranded DNA deaminase assay. [Related pubchem assays (depositor defined):AID493011, AID493024]; format: functional
[11] = target: DNA dC->dU-editing enzyme APOBEC-3G (Homo sapiens, UniProt Q9HC16); format: functional;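 note: Dose-response counterscreen measuring inhibition of APOBEC3G DNA deaminase activity, run while confirming APOBEC3A inhibitors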
[12] = cytotoxicity toward NIH3T3 fibroblasts, dose response, counter-screen, cell-based, ATP luminescence, mouse fibroblasts (AID 2010); format: functional;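 note: cells exposed to compound for about 90 hours before reading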
[13] = inhibitors of intracellular T. cruzi replication, confirmation, NIH3T3 host cells, beta-gal luminescence (AID 2044); format: functional, cell-based;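 note: intracellular parasites grown in NIH/3T3 mouse fibroblasts as host cells; luminescent beta-galactosidase reporter signal from transgenic T. cruzi replicating inside host cells; inhibitors lower the luminescence signal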
[14] = target: T5, Carboxy-terminal domain RNA polymerase II polypeptide A small phosphatase 1 (Homo sapiens, UniProt Q9GZU7); test: inhibitors of CTDSP1, concentration-response testing, biochemical assay, absorbance-based, actives from ultra-high-throughput screening (AID 540297); format: functional
T5 sequence (Q9GZU7 whole entry): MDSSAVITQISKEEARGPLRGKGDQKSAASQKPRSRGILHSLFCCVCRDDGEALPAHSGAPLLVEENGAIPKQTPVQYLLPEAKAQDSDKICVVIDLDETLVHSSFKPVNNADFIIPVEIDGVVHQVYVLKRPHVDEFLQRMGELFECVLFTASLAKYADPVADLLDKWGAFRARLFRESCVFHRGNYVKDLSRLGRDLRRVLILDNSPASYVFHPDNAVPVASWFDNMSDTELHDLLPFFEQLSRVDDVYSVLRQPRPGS

Genome polyprotein = Genome polyprotein (dengue virus type 2, UniProt P29990); test: Dengue-2 NS5 methyltransferase inhibitors, primary screen, biochemical, confirmation dose response (AID 588689); format: functional
[15] = growth suppression of PTEN-null colon cells, dose response, cell-based, HCT116 PTEN knockout (AID 1047); format: functional;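 note: HCT116 colon tumor cells with PTEN knocked out; cells exposed to compound for 60 hours before readout; potency for loss of cell viability measured by luminescence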
[16] = growth suppression of beta-catenin-knockout colon cells, dose response, cell-based, HCT116, human colon tumor (AID 1045); format: functional;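 note: HCT116 colon tumor cells with beta catenin knocked out; cells exposed to compound for 60 hours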
Cytochrome P450 2D6 = Cytochrome P450 2D6 (Homo sapiens, UniProt P10635);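 note: CYP2D6 member of a cytochrome P450 panel assay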
Sequence of Cytochrome P450 2D6 (P10635 whole entry): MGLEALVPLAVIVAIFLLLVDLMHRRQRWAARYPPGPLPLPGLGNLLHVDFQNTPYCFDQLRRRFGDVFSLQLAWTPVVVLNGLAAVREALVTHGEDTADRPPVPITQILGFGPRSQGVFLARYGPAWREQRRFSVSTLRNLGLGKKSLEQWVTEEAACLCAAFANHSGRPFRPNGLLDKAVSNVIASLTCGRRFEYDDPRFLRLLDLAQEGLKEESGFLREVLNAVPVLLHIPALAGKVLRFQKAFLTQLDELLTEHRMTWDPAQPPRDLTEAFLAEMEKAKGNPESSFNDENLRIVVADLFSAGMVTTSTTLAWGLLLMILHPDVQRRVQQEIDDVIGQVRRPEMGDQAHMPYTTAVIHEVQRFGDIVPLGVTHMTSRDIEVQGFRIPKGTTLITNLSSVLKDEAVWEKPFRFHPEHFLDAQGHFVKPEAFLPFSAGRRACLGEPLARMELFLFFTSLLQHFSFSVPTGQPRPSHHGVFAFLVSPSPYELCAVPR

Sequence of DNA dC->dU-editing enzyme APOBEC-3G (Q9HC16 whole entry): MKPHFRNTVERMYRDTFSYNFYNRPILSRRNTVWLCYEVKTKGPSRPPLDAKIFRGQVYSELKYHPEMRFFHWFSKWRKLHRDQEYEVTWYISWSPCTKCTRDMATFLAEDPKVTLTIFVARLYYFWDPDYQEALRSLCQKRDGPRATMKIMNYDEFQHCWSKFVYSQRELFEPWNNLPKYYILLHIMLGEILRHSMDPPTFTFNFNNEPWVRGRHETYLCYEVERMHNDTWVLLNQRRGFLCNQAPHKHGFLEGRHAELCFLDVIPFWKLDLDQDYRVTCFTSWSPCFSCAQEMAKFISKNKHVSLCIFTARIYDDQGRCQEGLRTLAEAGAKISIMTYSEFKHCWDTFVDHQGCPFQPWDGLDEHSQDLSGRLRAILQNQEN
Sequence of Genome polyprotein (P29990 2492-3391 limits assumed): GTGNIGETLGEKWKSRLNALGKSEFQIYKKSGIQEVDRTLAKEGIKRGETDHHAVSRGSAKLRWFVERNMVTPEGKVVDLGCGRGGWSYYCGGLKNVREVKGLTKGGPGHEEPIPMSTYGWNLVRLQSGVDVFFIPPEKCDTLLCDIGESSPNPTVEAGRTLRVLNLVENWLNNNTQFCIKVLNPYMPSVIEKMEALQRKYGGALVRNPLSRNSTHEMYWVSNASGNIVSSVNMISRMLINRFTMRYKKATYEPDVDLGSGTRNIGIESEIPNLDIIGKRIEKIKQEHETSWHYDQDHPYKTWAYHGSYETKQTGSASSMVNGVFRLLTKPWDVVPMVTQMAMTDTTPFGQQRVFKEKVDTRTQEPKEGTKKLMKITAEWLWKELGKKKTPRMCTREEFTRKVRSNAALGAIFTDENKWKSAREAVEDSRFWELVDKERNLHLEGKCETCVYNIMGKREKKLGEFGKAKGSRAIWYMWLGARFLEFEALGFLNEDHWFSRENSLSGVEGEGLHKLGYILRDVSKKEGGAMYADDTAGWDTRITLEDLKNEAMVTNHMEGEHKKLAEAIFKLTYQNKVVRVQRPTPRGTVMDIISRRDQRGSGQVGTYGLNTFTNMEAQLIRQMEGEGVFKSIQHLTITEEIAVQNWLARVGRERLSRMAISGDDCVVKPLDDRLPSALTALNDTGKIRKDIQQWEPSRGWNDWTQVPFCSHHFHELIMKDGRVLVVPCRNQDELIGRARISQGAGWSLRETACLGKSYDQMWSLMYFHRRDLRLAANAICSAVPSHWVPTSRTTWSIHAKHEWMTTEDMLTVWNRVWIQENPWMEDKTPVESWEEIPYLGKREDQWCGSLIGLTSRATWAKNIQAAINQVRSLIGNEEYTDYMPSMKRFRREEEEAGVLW
Sequence of Cytochrome P450 2C9 (P11712 whole entry): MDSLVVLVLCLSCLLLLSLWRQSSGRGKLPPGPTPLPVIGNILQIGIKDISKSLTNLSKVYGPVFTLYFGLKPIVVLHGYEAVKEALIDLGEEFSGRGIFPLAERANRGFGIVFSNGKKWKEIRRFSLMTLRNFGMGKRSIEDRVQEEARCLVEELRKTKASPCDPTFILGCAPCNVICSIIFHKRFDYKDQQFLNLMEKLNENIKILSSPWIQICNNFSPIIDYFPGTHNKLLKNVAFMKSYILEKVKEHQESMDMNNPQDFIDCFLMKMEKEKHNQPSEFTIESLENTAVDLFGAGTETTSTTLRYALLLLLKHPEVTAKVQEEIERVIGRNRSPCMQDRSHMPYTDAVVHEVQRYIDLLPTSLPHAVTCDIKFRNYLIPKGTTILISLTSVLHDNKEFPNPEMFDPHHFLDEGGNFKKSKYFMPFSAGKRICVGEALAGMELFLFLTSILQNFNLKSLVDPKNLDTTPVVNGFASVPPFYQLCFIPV
Sequence of DNA dC->dU-editing enzyme APOBEC-3A (P31941 whole entry): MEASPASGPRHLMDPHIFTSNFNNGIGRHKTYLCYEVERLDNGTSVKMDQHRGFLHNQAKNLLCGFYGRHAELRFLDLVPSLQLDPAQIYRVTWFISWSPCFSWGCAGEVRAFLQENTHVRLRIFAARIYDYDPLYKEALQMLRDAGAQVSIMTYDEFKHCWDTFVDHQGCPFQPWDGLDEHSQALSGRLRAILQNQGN
T2 sequence (P49327 whole entry, the tested form may be a part): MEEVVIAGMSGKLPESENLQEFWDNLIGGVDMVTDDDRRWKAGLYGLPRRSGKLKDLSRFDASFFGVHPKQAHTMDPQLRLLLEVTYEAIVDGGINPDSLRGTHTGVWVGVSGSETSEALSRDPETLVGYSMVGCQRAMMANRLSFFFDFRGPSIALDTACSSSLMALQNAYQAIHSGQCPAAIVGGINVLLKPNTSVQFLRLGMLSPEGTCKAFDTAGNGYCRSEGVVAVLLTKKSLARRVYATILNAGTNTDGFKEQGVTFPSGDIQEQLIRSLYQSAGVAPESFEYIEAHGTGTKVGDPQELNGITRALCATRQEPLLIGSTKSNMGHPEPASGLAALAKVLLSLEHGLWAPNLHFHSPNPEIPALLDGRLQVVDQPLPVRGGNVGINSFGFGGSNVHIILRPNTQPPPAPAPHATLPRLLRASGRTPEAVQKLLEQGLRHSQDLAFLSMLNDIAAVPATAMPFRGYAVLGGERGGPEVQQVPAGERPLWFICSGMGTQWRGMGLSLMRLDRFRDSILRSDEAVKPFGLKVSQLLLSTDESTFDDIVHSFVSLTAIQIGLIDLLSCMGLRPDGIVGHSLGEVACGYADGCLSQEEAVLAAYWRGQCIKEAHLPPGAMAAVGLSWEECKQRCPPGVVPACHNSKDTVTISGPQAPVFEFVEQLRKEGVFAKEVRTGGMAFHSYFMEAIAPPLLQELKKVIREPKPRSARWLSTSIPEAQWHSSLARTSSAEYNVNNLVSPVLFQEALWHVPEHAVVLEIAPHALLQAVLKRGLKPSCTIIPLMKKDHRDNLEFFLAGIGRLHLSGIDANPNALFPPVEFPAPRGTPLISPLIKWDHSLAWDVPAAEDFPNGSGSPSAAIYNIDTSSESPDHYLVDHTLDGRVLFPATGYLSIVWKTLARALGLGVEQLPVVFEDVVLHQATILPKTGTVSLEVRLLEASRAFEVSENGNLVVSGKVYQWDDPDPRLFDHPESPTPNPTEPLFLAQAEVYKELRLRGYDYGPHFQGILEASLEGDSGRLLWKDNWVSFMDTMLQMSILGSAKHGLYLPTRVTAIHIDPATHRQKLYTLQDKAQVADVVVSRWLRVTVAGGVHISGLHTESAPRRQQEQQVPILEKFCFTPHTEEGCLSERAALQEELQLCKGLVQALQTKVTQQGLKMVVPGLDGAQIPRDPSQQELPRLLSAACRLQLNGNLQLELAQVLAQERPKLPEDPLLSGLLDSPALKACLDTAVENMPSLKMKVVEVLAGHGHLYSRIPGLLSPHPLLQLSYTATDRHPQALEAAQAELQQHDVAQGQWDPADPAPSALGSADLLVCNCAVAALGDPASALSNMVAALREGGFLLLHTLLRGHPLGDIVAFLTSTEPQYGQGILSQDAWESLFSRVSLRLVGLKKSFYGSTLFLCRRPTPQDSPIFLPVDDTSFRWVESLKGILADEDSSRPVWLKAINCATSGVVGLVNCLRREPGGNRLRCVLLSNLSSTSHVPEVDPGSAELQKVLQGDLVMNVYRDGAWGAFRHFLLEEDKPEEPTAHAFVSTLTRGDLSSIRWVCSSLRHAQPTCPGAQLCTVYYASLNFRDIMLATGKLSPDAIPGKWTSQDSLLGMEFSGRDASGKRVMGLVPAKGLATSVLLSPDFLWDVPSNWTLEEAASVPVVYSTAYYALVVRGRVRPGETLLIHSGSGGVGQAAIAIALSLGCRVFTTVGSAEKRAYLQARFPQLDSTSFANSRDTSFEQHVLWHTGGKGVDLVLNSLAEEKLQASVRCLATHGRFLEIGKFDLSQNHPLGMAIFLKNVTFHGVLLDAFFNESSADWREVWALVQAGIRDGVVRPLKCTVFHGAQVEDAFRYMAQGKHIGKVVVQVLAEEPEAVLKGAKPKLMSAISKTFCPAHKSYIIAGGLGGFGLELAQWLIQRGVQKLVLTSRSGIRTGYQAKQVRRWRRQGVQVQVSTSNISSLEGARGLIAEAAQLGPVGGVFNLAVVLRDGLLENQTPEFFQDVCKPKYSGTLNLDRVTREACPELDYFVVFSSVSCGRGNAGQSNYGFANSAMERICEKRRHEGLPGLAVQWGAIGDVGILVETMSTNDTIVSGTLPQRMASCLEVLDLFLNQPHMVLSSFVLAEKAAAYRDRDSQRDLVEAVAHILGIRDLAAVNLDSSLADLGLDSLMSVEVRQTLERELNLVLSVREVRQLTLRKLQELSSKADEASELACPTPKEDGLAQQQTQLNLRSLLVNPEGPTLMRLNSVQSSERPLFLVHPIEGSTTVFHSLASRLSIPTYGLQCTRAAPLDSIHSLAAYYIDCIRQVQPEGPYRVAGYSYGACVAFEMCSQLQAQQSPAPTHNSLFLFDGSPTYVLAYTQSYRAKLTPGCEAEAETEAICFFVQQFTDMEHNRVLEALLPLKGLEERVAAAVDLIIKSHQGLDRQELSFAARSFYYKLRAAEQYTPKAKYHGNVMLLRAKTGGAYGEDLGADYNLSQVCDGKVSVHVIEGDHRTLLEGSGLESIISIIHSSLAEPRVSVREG

Cc1cc(=O)c2ccccc2[nH]1
AC50 (Cytochrome P450 1A2): 25.1 µM (inconclusive)
AC50 (Cytochrome P450 2C9): inconclusive

COc1ccc(N=C2C(=O)Nc3c(C)cccc32)cc1
IC50 [1]: > 100 µM (active)

O=[N+]([O-])c1cccc(OCCN2CCC(Cc3ccccc3)CC2)c1
IC50 (Fatty acid synthase [2]): 5.3 µM (active)
IC50 (Fatty acid synthase [3]): 4.72 µM (active)

Cn1nc(C(=O)Nc2ccc(S(=O)(=O)N3CCCCC3)cc2)c2ccccc2c1=O
IC50 [4]: > 50 µM (not active)

O=C1/C(=C/c2ccccc2Cl)SC(=S)N1CCCC(=O)N(CCO)c1ccccc1
IC50 (Fatty acid synthase [2]): 14.2 µM (active)
IC50 (Fatty acid synthase [3]): 9.91 µM (active)
EC50 [5]: 0.473 µM (active)

COc1ccc(NC(C)=O)cc1NC(=O)CN1CCN(C2c3ccccc3-c3ccccc32)CC1
EC50 [6]: 14.7 µM (active)
EC50 [7]: > 120 µM (not active)
CC50 (Vero): 19.3 µM (active)
EC50 [8]: > 120 µM (not active)

CCC(C)N1C(=O)/C(=C\c2cc3c4c(c2)CCCN4CCC3)C(=O)NC1=S (configuration not stated)
CC50 (Vero): > 25 µM (active)

O=C(Cc1ccccc1)Nc1ccccc1N1CCOCC1
AC50 (Cytochrome P450 1A2): 6.31 µM (inconclusive)
AC50 (Cytochrome P450 2C19): 8.91 µM (inconclusive)
AC50 (Cytochrome P450 3A4): 6.31 µM (inconclusive)
AC50 (Cytochrome P450 2C9): inconclusive

CC(C)OCCCNc1[nH]cnc2c3ccccc3nc1-2
AC50 (INS1): 2.87 µM (active)
AC50 [9]: 5.7 µM (active)

Cc1cc(C)nc(N=C(N)Nc2ccc(S(=O)(=O)O)cc2)n1
IC50 [4]: < 0.4 µM (not active)

Cc1nc(NC(=O)/C=C/c2ccccc2)sc1C(=O)N(C)C
AC50 (Escherichia coli): 43.6 µM (active)

CC[n+]1ccc(/C=C/c2c[nH]c3ccccc23)cc1
IC50 [10]: 5.16 µM (active)
AC50 (INS1): 5.79 µM (active)
IC50 [11]: 12.3 µM (active)
EC50 [12]: > 60 µM (not active)
EC50 [13]: 0.839 µM (active)

O=C(Nc1ccc(-c2nc3ncccc3o2)cc1)c1ccco1
AC50 (Escherichia coli): 30.5 µM (active)

O=C(NCCc1ccccc1)/C(=C\c1cccc([N+](=O)[O-])c1)NC(=O)c1ccco1
IC50 (Fatty acid synthase [2]): 3.04 µM (active)
IC50 (Fatty acid synthase [3]): 4.22 µM (active)

O=C(/C=C/c1ccco1)OCC(=O)N1CCCCC1
IC50 [10]: 19.5 µM (active)
IC50 [14]: 5.75 µM (active)
IC50 [11]: 35.9 µM (active)

COc1ccc(C(=O)N(C)c2c(C)n(C)n(-c3ccccc3)c2=O)cc1OC
IC50 [4]: 18.1 µM (not active)

CCCC(=O)Nc1ccc(Cl)c(NC(=S)NC(=O)c2cc3ccccc3o2)c1
IC50 [4]: > 50 µM (not active)

CN(CC(=O)Nc1ccc(N2CCOCC2)cc1)CC(=O)Nc1ccc(N2CCOCC2)cc1
IC50 [4]: 0.655 µM (not active)

C#CCOc1c(Br)cc(/C=C2/C(=O)ON=C2C)cc1OCC
IC50 (Genome polyprotein): 84.7 µM (active)

COc1ccc(CCNCC(O)COc2c(C)cccc2C)cc1OC (configuration not stated)
AC50 (Escherichia coli): > 150 µM (inactive)

CCOC(=O)CNC(=O)c1ccccc1
AC50 (Escherichia coli): 21 µM (active)

COc1cccc(C2C3=C(O)CC(C)(C)CC3=NC(C)=C2C(=O)Nc2nc3ccccc3s2)c1OC (configuration not stated)
IC50 [1]: > 100 µM (active)

COc1cc2c3c(c1)-c1c(sn(-c4cc(OC)ccc4OC)c1=S)C(C)(C)N3C(=O)C2=O
EC50 [15]: 42.3 µM (active)
EC50 [16]: 51 µM (active)
IC50 (Genome polyprotein): 61.9 µM (active)

CC(OC(=O)c1ccc(Cl)c([N+](=O)[O-])c1)C(=O)N1CCN(Cc2ccccc2)CC1 (configuration not stated)
IC50 (Fatty acid synthase [2]): 6.15 µM (active)
IC50 (Fatty acid synthase [3]): 3.36 µM (active)

CCn1c(C)nc2cc(S(=O)(=O)C(F)(F)C(F)C(F)(F)F)ccc21 (configuration not stated)
IC50 [4]: 3.91 µM (active)

CSc1ccccc1NC(=O)CN(C)CC(=O)c1[nH]c(C)c(C(C)=O)c1C
IC50 [10]: 6.83 µM (active)
IC50 [11]: 18.9 µM (active)

Cc1cc(Cl)ccc1OCCCC(=O)N1CCN(C)CC1
AC50 (Cytochrome P450 1A2): 15.8 µM (inconclusive)
AC50 (Cytochrome P450 2D6): 14.1 µM (inconclusive)
AC50 (Cytochrome P450 2C9): inconclusive

CC(C)(C)C1CCC(OC(=O)C[N+]2(C)CCCC2)CC1 (configuration not stated)
IC50 [10]: 2.96 µM (active)
IC50 [11]: 3.36 µM (active)

O=[N+]([O-])c1ccc([CH+][N-]NC(=S)N[N-][CH+]c2ccc([N+](=O)[O-])cc2)cc1
IC50 [14]: 4.17 µM (active)

Cn1nc(C(=O)Nc2ccc(-n3cnnn3)cc2)c2ccccc2c1=O
IC50 [14]: 25.7 µM (active)

COCCOc1ccc(C(F)(F)F)cc1NC(=O)Cc1ccc(S(=O)(=O)N2CCOCC2)s1
IC50 (Fatty acid synthase [2]): 6.76 µM (active)
IC50 (Fatty acid synthase [3]): 8.23 µM (active)

O=C1/C(=C/c2ccc(F)cc2)SC(=S)N1NS(=O)(=O)c1ccccc1
IC50 (Genome polyprotein): 36.7 µM (active)

C=CCOc1ccc(/C=N/O)cc1Cl
IC50 [1]: > 100 µM (active)

COc1ccc(/N=C/c2c(O)oc3ccccc3c2=O)cc1
IC50 [1]: > 100 µM (active)

CC/N=C1\S/C(=C\c2cn(C(C)=O)nc2-c2ccccc2)C(=O)N1CC
CC50 (Vero): 24.8 µM (active)

CCn1cc(C(=O)O)c(=O)c2cc(F)c(N3CCN(C)CC3)cc21 [PEFLOXACIN MESYLATE]
AC50 (Escherichia coli): 1.83 µM (active)
